Test results taken from patent US12685312B2, “Sulfonamide apyrase inhibitors” (Texas Crop Science, Inc., priority 2022, dated 2026).

Test system: apyrase
Assay: Screen for apyrase inhibitors (Method 1, in vitro phosphate-release absorbance assay)
Format: biochemical
Conditions: inhibitor conc at 1 mM stock, 1 hr room temperature, absorbance 630 nm; rounded average of two assay results
In short: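 Phosphate-release colorimetric assay (Windsor method) in 60 mM Hepes, 3 mM MgCl2, 3 mM CaCl2, 3 mM ATP, pH 6.5, with compound or DMSO control added. Released phosphate developed with ammonium molybdate and ascorbic acid/TCA, then stopped with citrate/acetic acid.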

SMILES	% Inhibition of Apyrase [%]
COc1cc(NC(=O)c2cccc(S(=O)(=O)Nc3ccc4c(c3)OCO4)c2)cc(OC)c1 [I-257, 3-(N-(benzo[d][1,3]dioxol-5-yl)sulfamoyl)-N-(3,5-dimethoxyphenyl)benzamide]	61
O=C(Nc1ccc2c(c1)OCCCO2)c1cccc(S(=O)(=O)Nc2ccc3c(c2)OCO3)c1 [I-258, 3-(N-(benzo[d][1,3]dioxol-5-yl)sulfamoyl)-N-(3,4-dihydro-2H-benzo[b][1,4]dioxepin-7-yl)benzamide]	61
O=C(Nc1ccc(OCC(F)(F)F)cc1)c1cccc(S(=O)(=O)Nc2ccc3c(c2)OCO3)c1 [I-259, 3-(N-(benzo[d][1,3]dioxol-5-yl)sulfamoyl)-N-(4-(2,2,2-trifluoroethoxy)phenyl)benzamide]	60
O=C(NCC1(c2ccc(Br)cc2)CCOCC1)c1cccc(S(=O)(=O)Nc2ccc(Br)cc2)c1 [I-260, 3-(N-(4-bromophenyl)sulfamoyl)-N-((4-(4-bromophenyl)tetrahydro-2H-pyran-4-yl)methyl)benzamide]	60
Cc1nc2ccc(NC(=O)c3cccc(S(=O)(=O)Nc4ccc5c(c4)OCO5)c3)cc2s1 [I-261, 3-(N-(benzo[d][1,3]dioxol-5-yl)sulfamoyl)-N-(2-methylbenzo[d]thiazol-6-yl)benzamide]	60
O=C(c1cccc(S(=O)(=O)Nc2ccc(Br)cc2)c1)N1CCc2sccc2C1 [I-262, N-(4-bromophenyl)-3-(4,5,6,7-tetrahydrothieno[3,2-c]pyridine-5-carbonyl)benzenesulfonamide]	59
COc1ccc([N+](=O)[O-])cc1NC(=O)c1cccc(S(=O)(=O)N2CCc3ccccc32)c1 [I-263, 3-(indolin-1-ylsulfonyl)-N-(2-methoxy-5-nitrophenyl)benzamide]	59
O=C(Nc1ccccc1)c1cccc(S(=O)(=O)Nc2ccc3c(c2)OCO3)c1 [I-264, 3-(N-(benzo[d][1,3]dioxol-5-yl)sulfamoyl)-N-phenylbenzamide]	59
O=C(Nc1cccc(F)c1)c1cccc(S(=O)(=O)Nc2ccc3c(c2)OCO3)c1 [I-265, 3-(N-(benzo[d][1,3]dioxol-5-yl)sulfamoyl)-N-(3-fluorophenyl)benzamide]	58
COc1ccccc1NS(=O)(=O)c1cccc(C(=O)Nc2cccc(C(F)(F)F)c2)c1 [I-266, 3-(N-(2-methoxyphenyl)sulfamoyl)-N-(3-(trifluoromethyl)phenyl)benzamide]	58
COc1ccc(N(C)S(=O)(=O)c2cccc(C(=O)Nc3ccc(Br)cc3)c2)cc1 [I-267, N-(4-bromophenyl)-3-(N-(4-methoxyphenyl)-N-methylsulfamoyl)benzamide]	58
COc1ccccc1NS(=O)(=O)c1cccc(C(=O)Nc2cccc([N+](=O)[O-])c2)c1 [I-268, 3-(N-(2-methoxyphenyl)sulfamoyl)-N-(3-nitrophenyl)benzamide]	58
COC(=O)C1(c2ccc(Br)cc2)CCN(C(=O)c2cccc(S(=O)(=O)Nc3ccc(Br)cc3)c2)C1 (stereo not drawn) [I-269, methyl 3-(4-bromophenyl)-1-(3-(N-(4-bromophenyl)sulfamoyl)benzoyl)pyrrolidine-3-carboxylate]	57
Cc1cccc(NC(=O)c2cccc(S(=O)(=O)Nc3ccc4c(c3)OCO4)c2)c1 [I-270, 3-(N-(benzo[d][1,3]dioxol-5-yl)sulfamoyl)-N-(m-tolyl)benzamide]	57
COc1ccc([N+](=O)[O-])cc1NC(=O)c1cccc(S(=O)(=O)N2c3ccccc3CC2C)c1 (stereo not drawn) [I-271, N-(2-methoxy-5-nitrophenyl)-3-((2-methylindolin-1-yl)sulfonyl)benzamide]	56
Cn1cc(O)nc1NC(=O)c1cccc(S(=O)(=O)Nc2ccc(Br)cc2)c1 [I-272, 3-(N-(4-bromophenyl)sulfamoyl)-N-(4-hydroxy-1-methyl-1H-imidazol-2-yl)benzamide]	52
Cc1ccc(NC(=O)c2cccc(S(=O)(=O)Nc3ccc(Br)cc3)c2)cc1S(=O)(=O)N1CCOCC1 [I-273, 3-(N-(4-bromophenyl)sulfamoyl)-N-(4-methyl-3-(morpholinosulfonyl)phenyl)benzamide]	52
N#CCc1ccc(NC(=O)c2cccc(S(=O)(=O)Nc3ccc4c(c3)OCO4)c2)cc1 [I-274, 3-(N-(benzo[d][1,3]dioxol-5-yl)sulfamoyl)-N-(4-(cyanomethyl)phenyl)benzamide]	48
COc1ccc([N+](=O)[O-])cc1NS(=O)(=O)c1cccc(C(=O)Nc2ccc(F)c([N+](=O)[O-])c2)c1 [I-275, N-(4-fluoro-3-nitrophenyl)-3-(N-(2-methoxy-5-nitrophenyl)sulfamoyl)benzamide]	46
COc1ccc(NC(=O)c2cccc(S(=O)(=O)Nc3ccc4c(c3)OCO4)c2)cc1 [I-276, 3-(N-(benzo[d][1,3]dioxol-5-yl)sulfamoyl)-N-(4-methoxyphenyl)benzamide]	44
COc1ccc(NC(=O)c2cccc(S(=O)(=O)Nc3ccc4c(c3)OCO4)c2)cc1OC [I-277, 3-(N-(benzo[d][1,3]dioxol-5-yl)sulfamoyl)-N-(3,4-dimethoxyphenyl)benzamide]	44
COc1ccc(NS(=O)(=O)c2cccc(C(=O)Nc3ccc(Br)cc3)c2)cc1 [I-278, N-(4-bromophenyl)-3-(N-(4-methoxyphenyl)sulfamoyl)benzamide]	43
COc1ccc(C(CNC(=O)c2cccc(S(=O)(=O)Nc3ccc(Br)cc3)c2)N(C)C)cc1 (stereo not drawn) [I-279, 3-(N-(4-bromophenyl)sulfamoyl)-N-(2-(dimethylamino)-2-(4-methoxyphenyl)ethyl)benzamide]	42
COc1ccc(NC(=O)c2cccc(S(=O)(=O)Nc3ccc(Br)cc3)c2)cn1 [I-280, 3-(N-(4-bromophenyl)sulfamoyl)-N-(6-methoxypyridin-3-yl)benzamide]	40
O=C(NCC(=O)N1CCCCC1)c1cccc(S(=O)(=O)Nc2ccc(Br)cc2)c1 [I-281, 3-(N-(4-bromophenyl)sulfamoyl)-N-(2-oxo-2-(piperidin-1-yl)ethyl)benzamide]	39
NC(=O)C1CCCN(C(=O)c2cccc(S(=O)(=O)Nc3ccc(Br)cc3)c2)C1 (stereo not drawn) [I-282, 1-(3-(N-(4-bromophenyl)sulfamoyl)benzoyl)piperidine-3-carboxamide]	34
O=C(Nc1ccc(N2CCOCC2)cc1)c1cccc(S(=O)(=O)Nc2ccc3c(c2)OCO3)c1 [I-283, 3-(N-(benzo[d][1,3]dioxol-5-yl)sulfamoyl)-N-(4-morpholinophenyl)benzamide]	29
O=C(NCCCN1CCOCC1)c1cccc(S(=O)(=O)Nc2ccc(Br)cc2)c1 [I-284, 3-(N-(4-bromophenyl)sulfamoyl)-N-(3-morpholinopropyl)benzamide]	27
O=C(Nc1cccc(C(F)(F)F)c1)c1cccc(S(=O)(=O)Nc2ccccc2F)c1 [I-285, 3-(N-(2-fluorophenyl)sulfamoyl)-N-(3-(trifluoromethyl)phenyl)benzamide]	17
O=C(NCCCCO)c1cccc(S(=O)(=O)Nc2ccc(Br)cc2)c1 [I-286, 3-(N-(4-bromophenyl)sulfamoyl)-N-(4-hydroxybutyl)benzamide]	13
